# Source: patent US12409181B2, “Treatment for aortic aneurysms” (THE REGENTS OF THE UNIVERSITY OF CALIFORNIA, priority 2019, dated 2025)
# “Also recorded” adds a separate entry of the source.
# Experiments:
# Prkg1^RQ/+ mice [1] = assay: Aging study: cobinamide in drinking water, Prkg1^RQ/+ mice; format: in vivo
# Prkg1^RQ/+ mice [2] = assay: Aortic gene expression by quantitative RT-PCR after Cbi treatment; format: in vivo; conditions: 12 month-old Prkg1^RQ/+ mice, 1 mM Cbi in drinking water for 1 month
# Description: (§1) Randomization and Drug Treatment of Mice. At the time of weaning, male and female litter mates were separated and randomly assigned to new cages. At the age of 6 months (aging studies) or 10-14 weeks (TAC studies), matched cages containing mice born within a three week period were randomly assigned to treatment versus vehicle groups. For aging studies, some mice received 1 mM trihistidyl-cobinamine (Cbi) in the drinking water, starting from the age of 6 months until 12 months. For gene expression studies, mice were treated with 1 mM Cbi for one month only, from 11-12 months of age. For TAC studies, some mice received 1 mg/ml N-acetylcysteine (NAC) in the drinking water starting 4 weeks before until 2 weeks after the surgery. The drugs were dissolved freshly each week and filter-sterilized; fluid intake was monitored weekly. The Cbi dose was calculated to be 50 mg/kg/d, and the NAC dose was 500 mg/kg/d. Aquohydroxyl-cobinamide was synthesized from cobalamine by removal of the 5,6-dimethyl-benzimidazol ring; trihistidyl-cobinamide was obtained by adding three molar equivalents of L-histidine to the aquohydroxyl cobinamide.^63 Purity of the drug was >95% by high-pressure liquid chromatography.
# Quantitative RT-PCR. Aortas were dissected and snap-frozen as described above; they were pulverized and immersed in Trizol (Molecular Res. Center, TR118). Total RNA was isolated, reverse-transcribed using iScript cDNA synthesis kit (Bio-Rad), and PCR was performed using a MX3005P real-time PCR detection system with Brilliant II SYBR Green Mix (Agilent Technologies) as described.^67 All primers were intron-spanning (except for 18S rRNA), and were tested with serial cDNA dilutions. Relative changes in mRNA expression were analyzed using the comparative 2^−ΔΔCt method, with 18S rRNA and phosphoglycerate kinase-1 serving as internal controls.^68
# human aortic SMCs = assay: Western blots (VASP phosphorylation, JNK activation) and OxyBlot protein oxidation in human SMCs; format: cell-based
# Description: Western Blotting. Following anesthesia with ketamine (100 mg/kg) and xylazine (10 mg/kg) by intraperitoneal injection, mice were exsanguinated and perfused with ice-cold phosphate-buffered saline (PBS) containing protease inhibitor cocktail (Calbiochem #539131). Aortas were excised, cleaned from surrounding tissue, and snap-frozen in liquid nitrogen within 15 min of euthanasia. Frozen aortas were pulverized and sonicated (3×10 sec) in ice-cold RIPA buffer (50 mM NaCl, 50 mM Tris-HCl, pH 8, 1% NP-40, 0.1% SDS, 0.5% sodium deoxycholate) supplemented with 1 mM NaF, 1 mM β-glycerolphosphate, and protease inhibitor cocktail. Western blots were developed with primary antibodies specific for PKG1 (1:1000, Cell Signaling Technology; 3248, […] (1:1000, Cell Signaling Technology; 3114), GAPDH (1:1000, Cell Signaling Technology; 2118), β-actin (1:5000, Santa Cruz Biotechnology; 47778), and JNK-phospho-Thr^183/Tyr^185 (1:1000, Cell Signaling Technology; 9251). Blots were developed and visualized with enhanced chemiluminescence using LI-COR Odyssey (with ImageStudio, V5) or with film in the linear range of exposure (with densitometry scanning using ImageJ (V1.51). Protein carbonyl groups (aldehydes and ketones) were detected using the OxyBlot™ Protein Oxidation Detection Kit (Millipore EMD; S7150). Unprocessed scans of blots are provided in the Source Data file.
# SMC Culture and Adenovirus Infection. Murine aortic SMCs were isolated from the aortas of 8-12 week old wild type and PKG1^RQ/+ mice and were cultured in Smooth Muscle Basal Media (SmBM) containing 20% FBS, pyruvate, HEPES, L-glutamine, penicillin/streptomycin and growth factors (SmBM Bullet kit; CC-4149 from Lonza), as previously described.^69 Two independent cell isolates from wild type and PKG1^RQ mice were used at passage one. Human primary aortic SMCs were purchased from Lifeline Cell Technology (Frederick, MD, FC-0015) and cultured in VascuLife Basal Medium supplemented with recombinant epidermal growth factor, insulin, and fibroblast growth factor-b, ascorbic acid, L-glutamine, 20% FBS, gentamycin, and amphotericin (Vasculife SMC LifeFactors kit; LS-1040 from Lifeline Technologies). Human SMCs were used at passages 3-6. Adenovirus was generated using the ViraPower Adenoviral Expression System (Thermo Fisher).^67 Human SMCs were infected with virus expressing wild type or mutant human PKG1α (containing the R177Q mutation); the MOI was 3-10 and titrated to produce wild type and mutant kinase at 2-3 fold the level of endogenous PKG1 at 72 h post infection. […] For knock-down of NOX2 and NOX4, SMCs were infected with adenovirus expressing shNOX2 or shNOX4 oligomers (downstream of the U6 promoter) at an MOI of 100; H2O2 production and NADPH oxidase activity assays were performed 48 h later (as described below).
# wild type mice = assay: Cobinamide treatment: effects and toxicity in mice; format: in vivo
# Description: as §1
# PKG1^RQ = target: T1, PKG1^RQ (Homo sapiens, UniProt Q13976, R177Q); assay: Kinase activity of purified PKG1^RQ; format: biochemical; conditions: purified enzyme
# T1 construct: FLAG (N); made in house; host or cells: transiently transfected 293T cells (ATCC, CRL3216)
# T1 sequence (Q13976 1-671 R177Q): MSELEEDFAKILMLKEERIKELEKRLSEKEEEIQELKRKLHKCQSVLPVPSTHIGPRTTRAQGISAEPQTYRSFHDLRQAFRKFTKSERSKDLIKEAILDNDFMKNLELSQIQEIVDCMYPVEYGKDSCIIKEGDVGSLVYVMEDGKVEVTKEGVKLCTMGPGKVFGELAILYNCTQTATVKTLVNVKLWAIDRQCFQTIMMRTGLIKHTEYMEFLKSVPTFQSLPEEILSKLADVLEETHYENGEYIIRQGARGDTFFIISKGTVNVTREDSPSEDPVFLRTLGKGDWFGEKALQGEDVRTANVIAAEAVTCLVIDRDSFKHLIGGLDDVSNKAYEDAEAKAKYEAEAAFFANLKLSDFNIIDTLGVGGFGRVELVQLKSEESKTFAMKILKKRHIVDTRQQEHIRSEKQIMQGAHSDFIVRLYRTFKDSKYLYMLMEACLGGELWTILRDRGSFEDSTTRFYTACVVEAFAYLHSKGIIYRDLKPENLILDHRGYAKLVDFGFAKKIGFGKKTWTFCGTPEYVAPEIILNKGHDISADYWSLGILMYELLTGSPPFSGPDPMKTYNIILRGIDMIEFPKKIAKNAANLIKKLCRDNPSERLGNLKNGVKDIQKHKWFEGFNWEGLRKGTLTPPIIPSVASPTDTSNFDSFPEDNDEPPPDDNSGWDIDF
# Description: PKG1 Purification and Activity Assays. Wild type and mutant PKG1^RQ were expressed with N-terminal FLAG epitope tags in transiently-transfected 293T cells (ATCC, CRL3216), purified with anti-FLAG beads and eluted with FLAG peptide, and kinase activity assays were performed.^41 Kinase activity in SMC and aortic extracts was measured using an optimized peptide in the presence of 1.25 μM protein kinase inhibitor peptide (PKI) to inhibit cAMP-dependent protein kinase.^65 Assays were performed with [γ-^32PO4]ATP (1.3 Ci/mmol; 50 μM) in the presence and absence of 3 μM cGMP, and were linear with time and protein concentration. In some assays, the PKG-specific inhibitory peptide DT2 was included at 10 μM.
# [3] = Prkg1^RQ/+ mice, 1 mM Cbi in drinking water from age 6 to 12 months
substance,measurement,setting,value
trihistidyl-cobinamide [Cbi],PKG activity in aortic extracts after treatment of the mice,Prkg1^RQ/+ mice [1]; Cbi-treated mice,nor did Cbi treatment of the mice affect PKG activity
same,"prevention of age-related aortic pathology, including aortic dilation",Prkg1^RQ/+ mice [1]; Prkg1^RQ/+ mice,highly effective
same,SMC apoptosis in aortas,Prkg1^RQ/+ mice [1]; [3],reduced oxidative stress markers and SMC apoptosis in aortas of Prkg1^RQ/+ mice to values in WT mice
same,SMC loss,Prkg1^RQ/+ mice [1]; [3],completely prevented
same,elastin fiber breaks,Prkg1^RQ/+ mice [1]; [3],reduced elastin fiber breaks and media collagen content to levels in WT mice
same,media collagen content,Prkg1^RQ/+ mice [1]; [3],reduced elastin fiber breaks and media collagen content to levels in WT mice
same,oxidative stress markers in aortas,Prkg1^RQ/+ mice [1]; [3],reduced oxidative stress markers and SMC apoptosis in aortas of Prkg1^RQ/+ mice to values in WT mice; also recorded: reduced oxidative stress markers in the aorta
same,aortic dilation,"Prkg1^RQ/+ mice [1]; Prkg1^RQ/+ mice, 1 mM Cbi in drinking water from age 6 to 12 months, ultrasound",completely prevented
same,"amount of Cys^43-oxidized, cross-linked PKG1 dimer in aortas",Prkg1^RQ/+ mice [1]; wild type and Prkg1^RQ/+ mice,no effect
same,Ctgf mRNA in aortas,Prkg1^RQ/+ mice [2],reduced all five transcripts
same,Hif1a mRNA in aortas,Prkg1^RQ/+ mice [2],reaching levels similar to those observed in wild type mice
same,Nox4 mRNA in aortas,Prkg1^RQ/+ mice [2],reduced all five transcripts
same,Tgfb1 mRNA in aortas,Prkg1^RQ/+ mice [2],reduced all five transcripts
same,Vegfa mRNA in aortas,Prkg1^RQ/+ mice [2],reaching levels similar to those observed in wild type mice
same,H2O2-induced JNK activation,human aortic SMCs; human SMCs,decreased
same,H2O2-induced protein oxidation,human aortic SMCs; human SMCs,decreased
same,protein oxidation in PKG1^RQ-expressing cells,human aortic SMCs; human SMCs expressing PKG1^RQ,reduced protein oxidation
same,serum homocysteine concentration,wild type mice; Cbi-treated mice,normal
same,serum methylmalonic acid concentration,wild type mice; Cbi-treated mice,normal
same,vitamin B12-dependent functions,wild type mice; Cbi-treated mice,did not affect
same,toxicity,"wild type mice; judged by normal weight, clinical appearance, blood counts, and liver and kidney function tests",no discernible toxicity
same,effects in wild type mice,"wild type mice; wild type mice, Cbi in drinking water",no significant effects
same,activity of purified PKG1^RQ,PKG1^RQ,no effect
